Where two headings read alike, the source gives them in different places.
Assays:
Format in all cases: cell-based
[1] = biological target: CAv1.2 (Homo sapiens, UniProt Q13936); experiment: FLIPR data, CAv1.2 channel blocking (Table 6)
[2] = biological target: Human Cav 2.2 channels (Homo sapiens, UniProt Q00975); experiment: Fluorescent assay for CaV2.2 channels using potassium depolarization (VIPR/FLIPR); conditions: FLIPR data
Description: Human Cav 2.2 channels were stably expressed in HEK293 cells along with alpha2-delta and beta subunits of voltage-gated calcium channels. An inwardly rectifying potassium channel (Kir2.3) was also expressed in these cells to allow more precise control of the cell membrane potential by extracellular potassium concentration. At low bath potassium concentration, the membrane potential is relatively negative, and is depolarized as the bath potassium concentration is raised. In this way, the bath potassium concentration can be used to regulate the voltage-dependent conformations of the channels. […] After the incubation period, Cav2.2 channel opening is triggered by addition of higher concentration of potassium (70 mM final concentration) to further depolarize the cell. The degree of state-dependent block can be estimated from the inhibitory potency of compounds after incubation in different potassium concentrations.
Calcium influx through Cav 2.2 channels is determined using a calcium sensitive fluorescent dye in combination with a fluorescent plate reader. Fluorescent changes were measured with either a VIPR (Aurora Instruments) or FLIPR (Molecular Devices) plate reader.
1. Seed cells in Poly-D-Lysine Coated 96 or 384-well plate and keep in a 3rC-IO % C02 incubator overnight.
2. Remove media, wash cells with 0.2 mL (96-well plate) or 0.05 mL (384-well plate) Dulbecco's Phosphate Buffered Saline (D-PBS) with calcium & magnesium (Invitrogen; 14040).
3. Add 0.1 mL (96-well plate) or 0.05 mL (384-well plate) of 4˜M fluor-4 (Molecular Probes; F-14202) and 0.02% Pluronic acid (Molecular Probes; P-3(00) prepared in D-PBS with calcium & magnesium (Invitrogen; 14040) supplemented with 10 mM Glucose & 10 mM HepeslNaOH; pH 7.4.
4. Incubate in the dark at 25° C. for 60-70 min.
5. Remove dye, wash cells with 0.1 mL (96-well plate) or 0.06 mL (384-well plate) of 4, 12, 25, or 30 mM Potassium Pre-polarization Buffer (PPB).
6. Add 0.1 mL (96-well plate) or 0.03 mL (384-well plate) of 4, 12, 25, 30 mM PPB with or without test compound.
7. Incubate in the dark at 25° C. for 30 min
8. Read cell plate on VIPR instrument, Excitation=480 nm, Emission=535 nm.
9. With VIPR continuously reading, add 0.1 mL (96-well plate) or 0.03 mL (384-well plate) of Depolarization Buffer (DB), which is 2× the final assay concentration, to the cell plate.

[3] = biological target: T-type calcium channel (Homo sapiens, UniProt O95180); experiment: T-type channel blocking, FLIPR data (Table 6)
Description: Another method, high-throughput spectrophotometric assay, utilizes loading of the cell lines with a fluorescent dye sensitive to intracellular calcium concentration and subsequent examination of the effects of compounds on the ability of depolarization by potassium chloride or other means to alter intracellular calcium levels.

[4] = closed state, read-out: CAv1.2 IC50 Closed
[5] = inactivated state, read-out: CAv1.2 IC50 Inact.
[6] = closed state, read-out: CAv2.2 IC50 Closed
[7] = inactivated state, read-out: CAv2.2 IC50 Inact.
[8] = CAv3.2, inactivated state, read-out: CAv3.2 IC50 Inact.
[9] = CAv3.2, closed state, read-out: CAv3.2 IC50 Closed
[10] = CAv3.2, ratio closed/inactivated IC50

Human Cav 2.2 channels, sequence (Q00975 whole entry): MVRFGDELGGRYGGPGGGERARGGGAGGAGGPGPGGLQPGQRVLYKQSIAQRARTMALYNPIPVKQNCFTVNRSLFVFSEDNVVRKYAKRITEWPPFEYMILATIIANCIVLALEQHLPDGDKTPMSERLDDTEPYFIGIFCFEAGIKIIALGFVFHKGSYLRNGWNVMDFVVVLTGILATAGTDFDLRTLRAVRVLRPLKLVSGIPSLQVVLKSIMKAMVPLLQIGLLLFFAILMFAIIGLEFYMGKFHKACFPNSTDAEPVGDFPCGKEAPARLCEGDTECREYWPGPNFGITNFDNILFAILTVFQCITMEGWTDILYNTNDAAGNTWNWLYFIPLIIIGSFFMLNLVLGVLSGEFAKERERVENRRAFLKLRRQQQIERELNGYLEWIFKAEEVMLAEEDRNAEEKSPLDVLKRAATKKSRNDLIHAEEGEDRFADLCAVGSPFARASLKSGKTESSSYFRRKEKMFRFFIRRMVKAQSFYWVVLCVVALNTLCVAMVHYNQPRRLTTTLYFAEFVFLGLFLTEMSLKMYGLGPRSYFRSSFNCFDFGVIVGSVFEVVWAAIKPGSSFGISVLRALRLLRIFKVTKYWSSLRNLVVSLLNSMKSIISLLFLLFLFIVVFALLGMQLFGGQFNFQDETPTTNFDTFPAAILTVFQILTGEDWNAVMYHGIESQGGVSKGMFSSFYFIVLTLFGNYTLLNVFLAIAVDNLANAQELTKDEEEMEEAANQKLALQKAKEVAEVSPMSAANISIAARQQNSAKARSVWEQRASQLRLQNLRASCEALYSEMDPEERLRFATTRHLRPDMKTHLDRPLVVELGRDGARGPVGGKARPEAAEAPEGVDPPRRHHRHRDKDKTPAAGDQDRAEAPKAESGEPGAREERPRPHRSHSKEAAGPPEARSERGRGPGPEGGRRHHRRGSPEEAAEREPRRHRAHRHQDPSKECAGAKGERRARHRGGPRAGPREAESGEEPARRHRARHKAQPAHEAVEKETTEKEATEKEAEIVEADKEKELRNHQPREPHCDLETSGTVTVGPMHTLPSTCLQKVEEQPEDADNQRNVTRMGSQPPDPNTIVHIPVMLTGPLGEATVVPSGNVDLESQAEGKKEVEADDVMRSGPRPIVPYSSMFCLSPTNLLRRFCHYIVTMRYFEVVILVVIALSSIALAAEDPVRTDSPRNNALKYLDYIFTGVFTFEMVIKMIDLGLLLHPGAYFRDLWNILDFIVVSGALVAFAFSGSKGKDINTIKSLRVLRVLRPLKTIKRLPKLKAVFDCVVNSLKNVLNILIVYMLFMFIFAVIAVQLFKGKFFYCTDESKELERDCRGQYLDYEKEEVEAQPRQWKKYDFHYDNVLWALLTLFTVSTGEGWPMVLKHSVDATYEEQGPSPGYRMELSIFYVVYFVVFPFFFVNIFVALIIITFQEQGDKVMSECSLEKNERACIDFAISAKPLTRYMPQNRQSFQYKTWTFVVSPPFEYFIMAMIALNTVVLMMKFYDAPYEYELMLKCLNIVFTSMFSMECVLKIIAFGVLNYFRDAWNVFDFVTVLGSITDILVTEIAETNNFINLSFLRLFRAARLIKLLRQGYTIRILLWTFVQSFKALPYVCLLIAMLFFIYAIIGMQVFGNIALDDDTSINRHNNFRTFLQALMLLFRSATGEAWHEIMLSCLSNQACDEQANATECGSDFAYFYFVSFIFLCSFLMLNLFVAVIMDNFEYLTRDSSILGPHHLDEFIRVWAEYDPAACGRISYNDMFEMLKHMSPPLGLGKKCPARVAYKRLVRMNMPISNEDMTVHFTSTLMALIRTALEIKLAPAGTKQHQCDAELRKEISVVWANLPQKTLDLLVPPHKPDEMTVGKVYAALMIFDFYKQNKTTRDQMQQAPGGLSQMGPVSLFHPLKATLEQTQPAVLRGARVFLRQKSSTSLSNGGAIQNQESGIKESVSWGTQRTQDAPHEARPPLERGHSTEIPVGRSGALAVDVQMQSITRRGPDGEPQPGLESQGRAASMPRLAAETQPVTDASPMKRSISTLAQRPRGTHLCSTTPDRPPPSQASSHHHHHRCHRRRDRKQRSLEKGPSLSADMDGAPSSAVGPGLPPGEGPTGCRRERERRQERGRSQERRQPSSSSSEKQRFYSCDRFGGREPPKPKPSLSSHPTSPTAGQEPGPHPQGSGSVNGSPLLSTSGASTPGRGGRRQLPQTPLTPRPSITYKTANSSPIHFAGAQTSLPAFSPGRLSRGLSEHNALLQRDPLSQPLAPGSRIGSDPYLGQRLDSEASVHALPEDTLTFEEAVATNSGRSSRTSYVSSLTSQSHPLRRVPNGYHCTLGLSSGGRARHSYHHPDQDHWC
Human Cav 2.2 channels, sequence (P54289 25-1103 partner): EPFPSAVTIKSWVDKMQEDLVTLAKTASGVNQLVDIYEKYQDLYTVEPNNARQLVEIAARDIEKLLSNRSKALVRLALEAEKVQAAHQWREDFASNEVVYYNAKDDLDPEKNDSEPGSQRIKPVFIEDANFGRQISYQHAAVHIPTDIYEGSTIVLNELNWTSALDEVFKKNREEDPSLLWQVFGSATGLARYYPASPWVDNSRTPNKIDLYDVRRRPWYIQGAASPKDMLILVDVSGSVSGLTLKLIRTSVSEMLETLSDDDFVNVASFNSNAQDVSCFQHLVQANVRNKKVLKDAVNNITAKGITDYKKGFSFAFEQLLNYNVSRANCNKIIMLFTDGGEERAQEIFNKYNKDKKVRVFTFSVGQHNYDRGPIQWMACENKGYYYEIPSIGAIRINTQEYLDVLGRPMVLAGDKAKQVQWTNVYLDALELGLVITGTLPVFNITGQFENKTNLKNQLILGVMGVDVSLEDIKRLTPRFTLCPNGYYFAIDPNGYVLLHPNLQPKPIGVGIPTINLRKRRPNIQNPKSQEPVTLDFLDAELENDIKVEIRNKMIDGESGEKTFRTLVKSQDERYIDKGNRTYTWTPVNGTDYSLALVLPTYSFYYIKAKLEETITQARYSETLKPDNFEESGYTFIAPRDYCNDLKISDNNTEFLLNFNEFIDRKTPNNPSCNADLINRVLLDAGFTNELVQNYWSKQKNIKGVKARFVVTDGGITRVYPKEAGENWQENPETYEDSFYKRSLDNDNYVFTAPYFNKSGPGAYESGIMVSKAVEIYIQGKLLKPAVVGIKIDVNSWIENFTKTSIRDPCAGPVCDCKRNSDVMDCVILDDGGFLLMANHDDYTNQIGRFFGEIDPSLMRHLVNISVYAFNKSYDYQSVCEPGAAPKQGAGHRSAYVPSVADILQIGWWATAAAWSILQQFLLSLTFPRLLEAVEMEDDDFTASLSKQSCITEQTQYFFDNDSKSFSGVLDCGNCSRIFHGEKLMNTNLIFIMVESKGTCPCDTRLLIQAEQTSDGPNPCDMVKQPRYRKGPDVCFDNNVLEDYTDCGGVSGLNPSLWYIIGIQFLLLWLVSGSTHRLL
Human Cav 2.2 channels, sequence (P54284 whole entry partner): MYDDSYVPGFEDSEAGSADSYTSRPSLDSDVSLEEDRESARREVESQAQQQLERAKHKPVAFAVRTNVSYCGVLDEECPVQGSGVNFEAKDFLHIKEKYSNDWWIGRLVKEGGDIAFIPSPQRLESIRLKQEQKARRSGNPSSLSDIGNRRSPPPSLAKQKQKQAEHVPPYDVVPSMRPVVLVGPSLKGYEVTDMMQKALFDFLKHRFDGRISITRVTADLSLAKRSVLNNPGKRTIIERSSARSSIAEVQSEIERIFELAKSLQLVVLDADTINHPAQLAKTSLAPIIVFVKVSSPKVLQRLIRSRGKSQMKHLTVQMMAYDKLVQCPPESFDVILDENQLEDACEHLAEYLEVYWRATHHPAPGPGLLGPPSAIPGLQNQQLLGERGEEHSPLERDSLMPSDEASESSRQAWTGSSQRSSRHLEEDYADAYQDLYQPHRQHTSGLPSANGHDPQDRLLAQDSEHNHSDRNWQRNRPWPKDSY

Row | SMILES | IC50 [1, 4] [µM] | IC50 [1, 5] [µM] | IC50 [2, 6] [µM] | IC50 [2, 7] [µM] | CAv2.2 IC50 Ratio closed/inact. ([2]; ratio closed/inactivated IC50) | IC50 [3, 8] [µM] | IC50 [3, 9] [µM] | CAv3.2 IC50 Ratio closed/inact. [3, 10] | CAv2.2 IC50 Ratio closed/inact. ([2]; ratio closed/inact.) | CAv3.2 IC50 Ratio closed/inact. ([3]; CAv3.2, ratio closed/inact.)
1 | CC(C)([C@H]1C[C@@H](NC(=O)CC2(N)CCCCC2)C1)S(=O)(=O)c1cccc(OC(F)(F)F)c1 [Compound 655] | ≥ 10 | ≥ 10 | 6.52 | 1.16 | 5.6 | 10 |  |  |  | 
2 | CC(C)([C@H]1C[C@H](NC(=O)CC2(N)CCCCC2)C1)S(=O)(=O)c1cccc(OC(F)(F)F)c1 [Compound 656] | ≥ 10 | ≥ 10 | 5.52 | 0.87 | 6.3 | 10 |  |  |  | 
3 | CNC1(CC(=O)N[C@H]2C[C@@H](C(C)(C)S(=O)(=O)c3cccc(C(F)(F)F)c3)C2)CCCCC1 [Compound 657] | ≥ 10 |  | 9.32 | 2.15 | 4.3 |  |  |  |  | 
4 | CNC1(CC(=O)N[C@H]2C[C@@H](C(C)(C)S(=O)(=O)c3cc(F)cc(C(F)(F)F)c3)C2)CCCCC1 [Compound 658] | ≥ 10 |  | 10 | 2.64 | 3.8 | 10 | ≥ 10 | 1 |  | 
5 | Cc1nc(S(=O)(=O)N[C@H]2C[C@H](C(C)(C)S(=O)(=O)c3cccc(C(F)(F)F)c3)C2)cn1C [Compound 670] |  |  | 10 | 8.66 | 1.2 |  |  |  |  | 
6 | CC(C)([C@H]1C[C@H](NC(=O)c2ncc(C(F)(F)F)cn2)C1)S(=O)(=O)c1cccc(C(F)(F)F)c1 [Compound 678] |  |  | 8.95 | 0.79 | 11.3 |  |  |  |  | 
7 | CC(C)([C@H]1C[C@H](NC(=O)c2ccc(Cl)cc2S(C)(=O)=O)C1)S(=O)(=O)c1cccc(C(F)(F)F)c1 [Compound 679] |  |  | 10 | 0.48 | 20.8 | 10 | ≥ 10 | 1 |  | 
8 | CC(C)([C@H]1C[C@H](NC(=O)c2ccc(S(C)(=O)=O)cc2Cl)C1)S(=O)(=O)c1cccc(C(F)(F)F)c1 [Compound 680] |  |  | 10 | 1.31 | 7.6 | 10 | ≥ 10 | 1 |  | 
9 | N[C@H]1CCCC[C@@H]1C(=O)NC[C@H]1C[C@H](S(=O)(=O)c2cccc(OC(F)(F)F)c2)C1 [Compound 713] |  |  |  |  |  | 10 |  |  |  | 
10 | CC(C)(C[C@H]1C[C@H](NC(=O)[C@H]2CCCC[C@H]2N)C1)S(=O)(=O)c1cccc(C(F)(F)F)c1 [Compound 742] |  |  | 3.36 | 1.05 |  | 10 |  |  | 3.2 | 
11 | O=C(c1ccc(C(F)(F)F)cn1)N1CC(CS(=O)(=O)c2cc(F)cc(C(F)(F)F)c2)C1 [Compound 746] |  |  |  | ≥ 10 |  | 10 | ≥ 10 |  |  | 1
12 | O=C(NC[C@H]1C[C@H](S(=O)(=O)c2cccc(Cl)c2)C1)c1cnc(C(F)(F)F)nc1 [Compound 773] |  |  |  | 9.88 |  | 10 | ≥ 10 |  | 1 | 1
13 | NC1(CC(=O)NC[C@H]2C[C@H](S(=O)(=O)c3cccc(Cl)c3)C2)CCCCC1 [Compound 776] |  |  | 10 | 9.37 |  | 10 |  |  | 1.1 | 
14 | N[C@@H]1CCCC[C@H]1C(=O)NC[C@H]1C[C@H](S(=O)(=O)c2cccc(Cl)c2)C1 [Compound 777] |  |  | 10 | ≥ 10 |  | 10 |  |  | 1 | 
15 | N[C@H]1CCCC[C@H]1C(=O)NC[C@H]1C[C@H](S(=O)(=O)c2cccc(Cl)c2)C1 [Compound 778] |  |  |  | ≥ 10 |  | 10 |  |  |  | 

Source: patent US20120245137A1 (Zalicus Pharmaceuticals Ltd., priority 2009, published 2012)
